What was measured:
[1] = tested on: LZ-pMTL83155; test: Sensitivity of C. autoethanogenum transformants to ganciclovir (plating on PETC agar), empty-vector strain; format: cell-based, Clostridium autoethanogenum
Method: (§1) The pMTL83155, pMTL83155-Hsv-tk and pMTL85155-PheS plasmids were introduced into C. autoethanogenum DSM23693 (a derivate of DSM10061) as described in WO2012053905. Outgrowth was performed in PETC broth and spread on PETC-agar media supplemented with 15 μg/ml thiamphenicol (Sigma) and 10 μg/ml trimethoprim (Sigma). Colonies were observed after 3 days of incubation at 37° C. in pressurized gas jars with 20 psi of a gas mix of 48% CO3 2% H2, 20% CO2, 30% N2. Streaks of single colonies were made on PETC-agar media containing 15 μg/mlthiamphenicol.
(§2) The sensitivity of LZ-pMTL83155 and LZ-pMTL83155-hsv-tk to ganciclovir was tested by plating them on PETC agar media containing 20 nM ganciclovir only and PETC agar media containing 20 nM ganciclovir and 15 μg/ml thiamphenicol. […] The presence of Hvs-tk gene confers toxicity to ganciclovir.

[2] = tested on: LZ-pMTL83155-hsv-tk; format: cell-based, Clostridium autoethanogenum
Method: as §1, with “Colonies were observed after 3 days of incubation at 37° C. in pressurized gas jars with 20 psi of a gas mix of 48% CO3 2% H2, 20% CO2, 30% N2.” left out
as §2

[3] = tested on: C. autoethanogenum DSM23693 harbouring pMTL85151; test: Toxicity/sensitivity testing of DL-4-chlorophenylalanine, C. autoethanogenum with empty vector; format: cell-based, Clostridium autoethanogenum
Method: (§3) E. coli Top10 and C. autoethanogenum DSM23693 harbouring the empty vector pMTL85151 were grown initially in the presence of DL-4-chlorophenylanine on plates and in liquid media to ascertain if the counter-selection marker has any effect on growth of the organisms.
(§4) The three independent transformants of C. atoethanogenum DSM23693 harbouring pMTL85151-pheS*, as well as C. autoethanogenum DSM23693 harbouring pMTL85151, were grown in liquid PECT media supplemented with thiamphenicol and grown at 37° C. under CO only conditions. After 24 hours, 100 ul of each of the three independent, as well as the control pMTL85151, were plated into PETC-MES agar supplemented with either thiamphenicol alone, or thiamphenicol and DL-4-chlorophenylalanine and incubated for 48 hours.

[4] = tested on: C. autoethanogenum DSM23693 harbouring pMTL85151-pheS*; format: cell-based, Clostridium autoethanogenum; settings: summary statement
Method: as §4

[5] = tested on: E. coli Top10 harbouring the empty vector pMTL85151; test: Toxicity testing of DL-4-chlorophenylalanine, E. coli with empty vector; format: cell-based; settings: plates and liquid media, 24 hours
Method: as §3

[6] = tested on: E. coli TOP10 harbouring pMTL85151-pheS*; test: Testing pheS* in E. coli (plating on LB with chloramphenicol and DL-4-chlorophenylalanine); format: cell-based
Method: To test the ability of the counter selection marker to work in E. coli, the plasmid pMTL85151-pheS* was transformed into TOP10 and grown under chloramphenicol selection only. Once the culture had reached an OD of 0.5, representing an exponential growth phase, 100 ul was plated onto LB plates containing chloramphenicol and DL-4-chlorophenylalanine as well as chloramphenicol alone as a control, in triplicate, […]

Compound | Colonies on ganciclovir plates ([1]; 20 nM ganciclovir, with or without 15 μg/ml thiamphenicol) | Sensitivity to prodrug: growth on plate, LZ-pMTL83155 ([1]; Ganciclovir 20 nM, CSM Hsv-tk) | Sensitivity to prodrug: growth on plate, LZ-pMTL83155-hsv-tk ([2]; Ganciclovir 20 nM, CSM Hsv-tk, PETC agar) | Counterselection in combination with HSV-Tk ([2]; summary statement) | Sensitivity to prodrug: growth on plate, column LZ-pMTL83155 ([3]; DL-4-Chlorophenlanine 0.20%, CSM PheS, control strain without CSM) | Growth on double selection plates (thiamphenicol and DL-4-chlorophenylalanine) ([3]; PETC-MES agar, 48 hours) | Effect on growth ([3]; plates and liquid media, 48 hours) | Counterselection in combination with PheS* [4] | Effect on growth [5] | Growth on plates with chloramphenicol and DL-4-chlorophenylalanine ([6]; 24 hours at 37° C., compared with chloramphenicol alone) | Growth on plates with chloramphenicol and DL-4-chlorophenylalanine ([6]; after 36 hours)
Nc1nc(O)c2ncn(COC(CO)CO)c2n1 [Ganciclovir, ganciclovir] | observed only with LZ-pMTL83155 transformants | Lawn | 0-5 ^ | effective for counterselection in C. autoethanogenum |  |  |  |  |  |  | 
NC(Cc1ccc(Cl)cc1)C(=O)O (racemic) [DL-4-chlorophenylalanine] |  |  |  |  | Lawn | the same results as the thiamphenicol only plate | did not impede growth of either organism in liquid media or on plates | effective for counterselection in C. autoethanogenum | did not impede growth of either organism in liquid media or on plates | a light shading of small colonies | outgrown to the same level as the chloramphenicol alone plates
